Test: method code SF-AS, from DOI: 10.2298/ciceq100329044p
Conditions: pH 7.4

Row | Compound | logD
1 | Cc1ccc(Cn2c(C)nc3ccccc32)cc1 | 4.01
2 | Cc1nc2ccccc2n1Cc1ccccc1 | 3.51
3 | Cc1ccc(C(=O)n2c(C)nc3ccccc32)cc1 | 3.87
4 | Cc1nc2ccccc2n1C(=O)c1ccc(Cl)cc1 | 3.95
5 | Cc1nc2ccccc2n1Cc1ccc(Cl)cc1 | 4.07
6 | Nc1nc2ccccc2n1C(=O)c1ccccc1 | 2.9
7 | Nc1nc2ccccc2n1C(=O)c1ccc(Cl)cc1 | 3.45
8 | Cc1ccc(C(=O)n2c(N)nc3ccccc32)cc1 | 3.35
9 | Cc1nc2ccccc2n1C(=O)c1ccccc1 | 3.38

Reference: the SangsterLogP compilation
